# In EPA's ToxRefDB 2:
# Tests used:
# dog [1] = details: Subchronic oral toxicity in nonrodent, beagle, Feed, dose end: 13 week
# rat [2] = details: Combined chronic toxicity/carcinogenicity, sprague dawley, Oral, Feed, dose end: 24 month
# rat [3] = details: Multigenerational reproductive toxicity study, other, Oral, Feed, dose end: 2 generation
# rat [4] = details: Subchronic oral toxicity in rodents, sprague dawley, Feed, dose end: 13 week
# mouse [5] = details: Subchronic oral toxicity in rodents, cd1, Feed, dose end: 90 day, group: cholinesterase
# dog [6] = details: Chronic toxicity, beagle, Oral, Feed, dose end: 52 week, group: cholinesterase
# rabbit = details: Prenatal developmental toxicity study, new zealand white, Oral, Gavage/Intubation, dose end: 19 GD
# mouse [7] = details: Carcinogenicity, cd1, Oral, Feed, dose end: 78 week
# [8] = group: cholinesterase, cholinesterase / cholinesterase / cholinesterase / plasma cholinesterase (che)
# [9] = group: systemic, systemic / clinical chemistry / protein / protein + systemic / in life observation / clinical signs / emaciation + systemic / in life …
# [10] = group: cholinesterase, cholinesterase / cholinesterase / cholinesterase / erythrocyte cholinesterase (che) + cholinesterase / cholinesterase / cholinesterase / …
# [11] = group: systemic, systemic / in life observation / body weight / body weight + systemic / in life observation / body weight / body weight gain + systemic / in…
# [12] = group: offspring, systemic / in life observation / body weight / offspring (pup) weight
# [13] = group: parental, systemic / in life observation / body weight / body weight + systemic / in life observation / clinical signs / abnormal feces + systemic / …
# [14] = group: cholinesterase, cholinesterase / cholinesterase / cholinesterase / plasma cholinesterase (che) + cholinesterase / cholinesterase / cholinesterase / brain …
# [15] = group: systemic, systemic / in life observation / body weight / body weight + systemic / in life observation / food consumption / food consumption + systemic…
# [16] = cholinesterase / cholinesterase / cholinesterase / plasma cholinesterase (che) + cholinesterase / cholinesterase / cholinesterase / brain …
# [17] = cholinesterase / cholinesterase / cholinesterase / brain cholinesterase (che)
# [18] = cholinesterase / cholinesterase / cholinesterase / brain cholinesterase (che) + cholinesterase / cholinesterase / cholinesterase / …
# [19] = group: developmental, systemic / in life observation / body weight / fetal weight
# [20] = group: maternal, systemic / in life observation / body weight / body weight gain + systemic / in life observation / clinical signs / defecation + systemic / …
# [21] = group: systemic, systemic / in life observation / body weight / body weight gain + systemic / in life observation / clinical signs / pneumonia + systemic / …
smiles,measurement,setting,value
CCOC(=O)CSc1nc(C(C)(C)C)nn1C(=O)N(C)C [Triazamate],LEL,dog [1]; [8],0.03 mg/kg/day
same,LOAEL,dog [1]; [8],0.03 mg/kg/day
same,NEL,dog [1]; [8],< 0.03 mg/kg/day
same,NOAEL,dog [1]; [8],< 0.03 mg/kg/day
same,LOAEL,dog [1]; [9],3.11 mg/kg/day
same,NOAEL,dog [1]; [9],0.31 mg/kg/day
same,NEL,"dog [1]; group: systemic, systemic / in life observation / clinical signs / distended abdomens + systemic / in life observation / clinical signs / vomitting + …",0.03 mg/kg/day
same,LEL,"dog [1]; group: systemic, systemic / in life observation / clinical signs / vomitting",0.31 mg/kg/day
same,LEL,rat [2]; [10],11.5 mg/kg/day
same,LOAEL,rat [2]; [10],11.5 mg/kg/day
same,NEL,rat [2]; [10],0.45 mg/kg/day
same,NOAEL,rat [2]; [10],0.45 mg/kg/day
same,LEL,rat [2]; [11],59.2 mg/kg/day
same,LOAEL,rat [2]; [11],> 59.2 mg/kg/day
same,NEL,rat [2]; [11],11.5 mg/kg/day
same,NOAEL,rat [2]; [11],≥ 59.2 mg/kg/day
same,LEL,rat [3]; [10],17 mg/kg/day
same,LOAEL,rat [3]; [10],17 mg/kg/day
same,NEL,rat [3]; [10],0.7 mg/kg/day
same,NOAEL,rat [3]; [10],0.7 mg/kg/day
same,LEL,rat [3]; [12],101 mg/kg/day
same,LOAEL,rat [3]; [12],101 mg/kg/day
same,NEL,rat [3]; [12],17 mg/kg/day
same,NOAEL,rat [3]; [12],17 mg/kg/day
same,LEL,rat [3]; [13],101 mg/kg/day
same,LOAEL,rat [3]; [13],> 101 mg/kg/day
same,NEL,rat [3]; [13],17 mg/kg/day
same,NOAEL,rat [3]; [13],≥ 101 mg/kg/day
same,LEL,rat [4]; [8],31 mg/kg/day
same,LOAEL,rat [4]; [8],31 mg/kg/day
same,NEL,rat [4]; [14],3 mg/kg/day
same,NOAEL,rat [4]; [14],3 mg/kg/day
same,LOAEL,"rat [4]; group: systemic, systemic / in life observation / body weight / body weight + systemic / in life observation / food consumption / food consumption",93 mg/kg/day
same,LEL,rat [4]; [15],93 mg/kg/day
same,NEL,rat [4]; [15],31 mg/kg/day
same,NOAEL,rat [4]; [15],31 mg/kg/day
same,LOAEL,mouse [5]; cholinesterase / cholinesterase / cholinesterase / plasma cholinesterase (che),4.55 mg/kg/day
same,NEL,mouse [5]; [16],0.336 mg/kg/day
same,NOAEL,mouse [5]; [16],0.336 mg/kg/day
same,LEL,mouse [5]; cholinesterase / cholinesterase / cholinesterase / plasma cholinesterase (che) + cholinesterase / cholinesterase / cholinesterase / …,4.55 mg/kg/day
same,LEL,dog [6]; [17],0.0232 mg/kg/day
same,LOAEL,dog [6]; [17],0.0232 mg/kg/day
same,NEL,dog [6]; [18],0.0172 mg/kg/day
same,NOAEL,dog [6]; [18],0.0172 mg/kg/day
same,LEL,rabbit; [19],0.5 mg/kg/day
same,LOAEL,rabbit; [19],> 10 mg/kg/day
same,NEL,rabbit; [19],0.05 mg/kg/day
same,NOAEL,rabbit; [19],≥ 10 mg/kg/day
same,LEL,rabbit; [20],0.5 mg/kg/day
same,LOAEL,rabbit; [20],0.5 mg/kg/day
same,NEL,rabbit; [20],0.05 mg/kg/day
same,NOAEL,rabbit; [20],0.05 mg/kg/day
same,LEL,mouse [7]; [8],6.7 mg/kg/day
same,LOAEL,mouse [7]; [8],6.7 mg/kg/day
same,NEL,mouse [7]; [14],0.13 mg/kg/day
same,NOAEL,mouse [7]; [14],0.13 mg/kg/day
same,LOAEL,"mouse [7]; group: systemic, systemic / in life observation / body weight / body weight gain + systemic / in life observation / clinical signs / pneumonia",210 mg/kg/day
same,LEL,mouse [7]; [21],210 mg/kg/day
same,NEL,mouse [7]; [21],6.7 mg/kg/day
same,NOAEL,mouse [7]; [21],6.7 mg/kg/day
